According to patent US20060182763A1, “CD8 T cell epitopes in HPV 16 E6 and E7 proteins and uses thereof” (priority 2005, published 2006):
Several values for one entry are separate records, joined by “and”; a condition that tells them apart may be missing. Identical values can stand only once. Entries after “also recorded” stand apart in the source; their conditions may differ. Where no end group is shown, it is not given here.

How the values were obtained:
Assay type in all cases: cell-based, human
T cell clones [1] = assay: IFN-γ ELISPOT of T cell clones with peptides and autologous EBV-LCL; details: for ELISPOT response (spot forming units) of T cell clones: 10 μM; for ELISPOT response (spot-forming units) of T cell clones: subject 15 clones specific for E6 26-40, peptides 10 μM; for T cell clones positive in screening ELISPOT: 94 out of 400 clones screened; for retest of screen-positive T cell clones (ELISPOT): 1000 T cell clone cells in duplicate; for ELISPOT response of T cell clones: subject 5 clones #1-5 and #17-5; for ELISPOT response of 27G6 clone: subject 1, E7-specific clone
Procedure: A method described previously was used with some modifications (Larsson, M. et al., 2002). Briefly, a 96-well plate (Millititer, Millipore, Bedford, Mass.) was coated with 5μg/ml primary anti-γ-IFN monoclonal antibody (Mabtech, Stockholm, Sweden) and stored at 4° C. overnight. The plate was then washed 4 times with phosphate buffered saline (PBS) and blocked using RPMI 1640 plus 5% pooled human serum for 1 h at 37° C.
To examine the pattern of CD8 T cell epitopes (FIG. 1), 1×10^5cells of a CD8 T cell line were plated in each well. Overlapping 15-mer peptides (overlapping by the 10 central amino acids) were pooled to 10 groups (each group containing 3 peptides) and tested in duplicate (10 μM for each peptide) along with no peptide control. For screening T cell clones, 50 μl of culture media containing the T cell clones was added with 1×10^5 autologous Epstein-Barr virus-transformed B lymphoblastoid cell line (EBV-LCL) cells (data not shown). With the remaining experiments using T cell clones, 1×10^3 T cell clones were plated along with 1×10^5EBV-LCL cells to reduce the number of T cell clones necessary for analysis. All peptides were used at a concentration of 10 μM.
Autologous EBV-LCL cells were incubated with E6-vac, E7-vac or WR at the multiplicity of infection of 10 for 1 h at 37° C. prior to being plated (FIG. 2B). Phytohemagglutinin (PHA) at 10 μg/ml was added as positive control. After a 24 h incubation at 37° C., the plate was washed 4 times with PS plus 0.05% Tween-20. A total of 50 μl of secondary antibody (1 μg/ml biotin-conjugated anti-IFNγ monoclonal antibody; Mabtech) was added and the plate was incubated for 2 h at 37° C. The plate was then washed 4 times with PBS plus 0.1% Tween-20. Avidin-bound biotinylated horseradish peroxidase H (Vectastain Elite kit; Vector laboratories, Inc., Burligame, Calif.) was added […] and air-dried overnight. Spot forming units were counted using an automated ELISPOT analyzer (Cell Technology, Inc., Jessup, Md.) and were normalized to number of spot forming units per 1×10^6 cells for CD8 T cell lines. Response was considered positive when the number of spot forming units in wells with peptide pools was at least double that seen in the no peptide control wells.
To isolate T cell clones recognizing the E6 antigenic epitope from subject 15, their CD8 T cell lines were stimulated as described above for two additional 7-day cycles, so the frequency of targeted T cell clones would be above the threshold of selection (≧0.1%). The peptide-specific T cells were positively selected using the IFN-γ secretion assay enrichment kit, according to the manufacturer's instructions (Miltenyi Biotec), after stimulating cells with 10 μM each of peptides contained in the E6 16-40 (SEQ ID NO. 36) pool. Selected cells were plated at a concentration of 0.5 cells per well in the presence of a 0.5× feeder cell mixture (Yssel's media containing 1% pooled human serum, penicillin G 100 units/ml, streptomycin 100 μg/ml, 5×10^5/ml irradiated allogenic PBMC, 5×10^4/ml irradiated JY cells, 0.1 μg/ml PHA, with/without 10 u/ml rIL-4). Control wells for growth contained 1 to 1000 cells per well. On day 5, 100 μl of Yssel's media containing 20 U/ml of rIL-2 was added to each well. Growing microcultures were transferred to 24-well plates containing 1 ml of 1× feeder cell mixture per well (Yssel's media containing 1% pooled human serum, penicillin G 100 units/ml, streptomycin 100 μg/ml, 1×10^6/ml irradiated allogenic PBMC, 1×10^5/ml irradiated JY cells and 0.1 μg/ml PHA).
All peptides were used at a concentration of […] and 1×10^3 T cell clones along with 1×10^5 autologous LCL cells were plated to each well.

CD8 T cell line = assay: IFN-γ ELISPOT of CD8 T cell lines with pooled overlapping 15-mer peptides; parameters: key to CD8 T cell response to HPV 16 E6 region: The strongest T cell response for a given subject is indicated with upper case X; x: subdominant response is indicated with lower case X; details: pooled 15-mer peptides, 10 μM each
T cell clones [2] = assay: ELISPOT with E6-vac/E7-vac-infected autologous EBV-LCL (naturally processed epitope)
[3] = subject 20 clones #60-20, #127-20, #138-20
[4] = subject 20, E6 16-40 region (eight clones), E6 31-55 region (four clones)

Substance: IHDIILEC (Human Papilloma Virus 16; CHAIN residues 30-37 of the E6 protein) [E6 30-37]
- ELISPOT response (spot forming units) of T cell clones (T cell clones [1]; [3]): Less number of spot forming units

Substance: DFAFRDLCIVY (Human Papilloma Virus 16; CHAIN residues 51-61 of the E6 protein) [E6 51-61]
- ELISPOT response (spot forming units) of T cell clones (T cell clones [1]; subject 7 subdominant epitope, clones #15-7, #41-7, #54-7, #86-7): more number of spot forming units

Substance: TTIHDIILEC (Human Papilloma Virus 16; CHAIN residues 28-37 of the E6 protein) [E6 28-37]
- ELISPOT response (spot-forming units) of T cell clones (T cell clones [1]): similar

Substance: E6 16-40: pool of three 15-mers: E6 16-30, E6 21-35, E6 26-40 (chain 1 PRKLPQLCTELQTTI; chain 2 QLCTELETTIHDIIL; chain 3 LQTTIHDIILECVYC; cysteine pairing not given here; also: pool of three 15-mers)
- CD8 T cell response to HPV 16 E6 region (CD8 T cell line; Subject 5): X
- CD8 T cell response to HPV 16 E6 region (CD8 T cell line; Subject 7): X
- CD8 T cell response to HPV 16 E6 region (CD8 T cell line; Subject 15): X
- CD8 T cell response to HPV 16 E6 region (CD8 T cell line; Subject 20): X
- T cell clones positive with E6-vac infected autologous LCL (T cell clones [2]; subject 7, MOI 5): 20 of 20 and all twenty
- T cell clones positive with E6-vac infected autologous LCL (T cell clones [2]; subject 15, MOI 10): 10 of 14 and 10 of the 14
- T cell clones positive with E6-vac infected autologous LCL (T cell clones [2]; subject 20, MOI 5): all eight
- T cell clones positive with E6-vac infected autologous LCL (T cell clones [2]; subject 20, MOI 5, listed as SEQ ID NO. 36): eight of eight

Substance: PRKLPQLCTELQTTI (Human Papilloma Virus 16; CHAIN residues 16-30 of the E6 protein) [E6 16-30]
- T cell clones positive in screening ELISPOT (T cell clones [1]; subject 15): one
- retest of screen-positive T cell clones (ELISPOT) (T cell clones [1]; subject 15): negative; also recorded: false positives

Substance: E6 144-154: HPV16 E6 11-mer, residues 144-154 (MSCCRSSRTRR; Human Papilloma Virus 16; CHAIN residues 144-154 of the E6 protein)
- ELISPOT response of T cell clones (T cell clones [1]): None of the 9-mers and the 11-mers was positive

Substance: E6 136-158: pool of overlapping 15-mers covering HPV16 E6 136-158 (RGRWTGRCMSCCRSSRYRRETQK; cysteine pairing not given here; also: pool of overlapping 15-mers)
- CD8 T cell response to HPV 16 E6 region (CD8 T cell line; Subject 5): x

Substance: EDLLMGTL (Human Papilloma Virus 16; CHAIN residues 80-87 of the E7 protein) [E7 80-87]
- ELISPOT response of 27G6 clone (T cell clones [1]): smaller response; also recorded: partial IFN-γ secretion

Substance: HDIILECVYCKQQLL (Human Papilloma Virus 16; CHAIN residues 31-45 of the E6 protein) [E6 31-45]
- screen-positive T cell clones positive for the 15-mer peptide on retest (T cell clones [1]; [4]): four

Substance: E6 91-115: pool of three overlapping 15-mers covering HPV16 E6 91-115 (YGTTLEQQYNKPLCDLLIRCINCQK; cysteine pairing not given here; also: pool of overlapping 15-mers)
- CD8 T cell response to HPV 16 E6 region (CD8 T cell line; Subject 18): X

Substance: AFRDLCIVY (Human Papilloma Virus 16; CHAIN residues 53-61 of the E6 protein) [E6 53-61]
- ELISPOT response of E6-specific T cell clones (T cell clones [1]; subject 1 clones 2, 9 and 69): response

Substance: E6 30-38: HPV16 E6 9-mer peptide, residues 30-38 (IHDIILECV; Human Papilloma Virus 16; CHAIN residues 30-38 of the E6 protein)
- ELISPOT response (spot forming units) of T cell clones (T cell clones [1]; subject 7 dominant epitope, clones #12-7, #40-7, #59-7): positive
- ELISPOT response (spot forming units) of T cell clones (T cell clones [1]; [3]): positive; also recorded: similar; also recorded: large numbers of spot forming units

Substance: E6 143-153: HPV16 E6 11-mer, residues 143-153 (CMSCCRSSRTR; Human Papilloma Virus 16; CHAIN residues 143-153 of the E6 protein)
- ELISPOT response of T cell clones (T cell clones [1]): None of the 9-mers and the 11-mers was positive

Substance: E6 31-39: HPV16 E6 9-mer peptide, residues 31-39 (HDIILECVY; Human Papilloma Virus 16; CHAIN residues 31-39 of the E6 protein)
- ELISPOT response (spot forming units) of T cell clones (T cell clones [1]; [3]): positive; also recorded: similar; also recorded: large numbers of spot forming units

Substance: QLCTELQTTIHDIIL (QLCTELETTIHDIIL; Human Papilloma Virus 16; CHAIN residues 21-35 of the E6 protein) [E6 21-35]
- T cell clones positive in screening ELISPOT (T cell clones [1]; subject 15): three
- retest of screen-positive T cell clones (ELISPOT) (T cell clones [1]; subject 15): negative; also recorded: false positives

Substance: E6 142-152: HPV16 E6 11-mer, residues 142-152 (RCMSCCRSSRT; Human Papilloma Virus 16; CHAIN residues 142-152 of the E6 protein)
- ELISPOT response of T cell clones (T cell clones [1]): None of the 9-mers and the 11-mers was positive

Substance: E6 32-38: HPV16 E6 7-mer, residues 32-38 (DIILECV; Human Papilloma Virus 16; CHAIN residues 32-38 of the E6 protein)
- ELISPOT response (spot forming units) of T cell clones (T cell clones [1]; [3]): Less number of spot forming units

Substance: E6 31-37: HPV16 E6 7-mer, residues 31-37 (HDIILEC; Human Papilloma Virus 16; CHAIN residues 31-37 of the E6 protein)
- ELISPOT response (spot forming units) of T cell clones (T cell clones [1]; [3]): Less number of spot forming units

Substance: E6 141-155: HPV16 E6 15-mer peptide, residues 141-155 (GRCMSCCRSSRTRRE; Human Papilloma Virus 16; CHAIN residues 141-155 of the E6 protein)
- screen-positive T cell clones positive for the 15-mer peptide on retest (T cell clones [1]; subject 5): Two
- ELISPOT response of T cell clones (T cell clones [1]): confirmed
- recognition of E6-vac infected autologous LCL / natural processing (T cell clones [2]; subject 5 clones #1-5 and #17-5): not with E6-vac infected autologous LCL; also recorded: not the E6-vac infected ones

Substance: LQTTIHDIILECVYC (Human Papilloma Virus 16; CHAIN residues 26-40 of the E6 protein) [E6 26-40]
- screen-positive T cell clones positive for the 15-mer peptide on retest (T cell clones [1]; subject 5): none of 5
- screen-positive T cell clones positive for the 15-mer peptide on retest (T cell clones [1]; subject 7, of 10 (E6 16-40 region) or six (E6 46-70 region) clones): 10 clones
- T cell clones positive in screening ELISPOT (T cell clones [1]; subject 15): Thirteen
- retest of screen-positive T cell clones (ELISPOT) (T cell clones [1]; subject 15): confirming their specificity
- retest of screen-positive T cell clones (ELISPOT) (T cell clones [1]; subject 15, listed as E6 24-60): confirmed
- screen-positive T cell clones positive for the 15-mer peptide on retest (T cell clones [1]; subject 15, of 14 clones positive for E6 16-40 region): 10 clones
- ELISPOT response (spot-forming units) of T cell clones (T cell clones [1]): similar
- screen-positive T cell clones positive for the 15-mer peptide on retest (T cell clones [1]; [4]): eight

Substance: LEDLLMGT (Human Papilloma Virus 16; CHAIN residues 79-86 of the E7 protein) [E7 79-86]
- ELISPOT response of 27G6 clone (T cell clones [1]): smaller response; also recorded: did not show any activity above the background

Substance: E6 61-85: pool of three overlapping 15-mers covering HPV16 E6 61-85 (YRDGNPYAVCDKCLKFYSKISEYRH; cysteine pairing not given here; also: pool of overlapping 15-mers)
- CD8 T cell response to HPV 16 E6 region (CD8 T cell line; Subject 18): x
- CD8 T cell response to HPV 16 E6 region (CD8 T cell line; Subject 23): x
